These results are taken from ChEMBL document CHEMBL3779872 (ACS Med Chem Lett, 2016).

Assay [1] concerns the target T1, Trace amine-associated receptor 1 (Homo sapiens, UniProt Q96RJ0).
T1 sequence (Q96RJ0 whole entry): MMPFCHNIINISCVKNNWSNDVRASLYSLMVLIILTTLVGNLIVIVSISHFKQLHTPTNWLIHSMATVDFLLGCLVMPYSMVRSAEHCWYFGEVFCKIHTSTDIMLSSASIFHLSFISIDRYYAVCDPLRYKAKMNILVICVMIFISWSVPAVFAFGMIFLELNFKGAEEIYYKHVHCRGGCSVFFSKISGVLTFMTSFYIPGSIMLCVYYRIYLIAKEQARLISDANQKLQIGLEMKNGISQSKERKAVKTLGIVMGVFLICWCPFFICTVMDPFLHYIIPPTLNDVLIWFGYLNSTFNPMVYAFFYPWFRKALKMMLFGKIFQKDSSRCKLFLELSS
As to the kind of experiment: Agonist activity at human TAAR1 expressed in recombinant HEK293 cells assessed as cAMP accumulation after 30 mins by luminometer. The assay is classed as functional, cell-based.

Assay [2] addresses T2, Trace amine-associated receptor 1 (Homo sapiens) (UniProt Q96RJ0).
T2 sequence (whole entry): T1 sequence (Q96RJ0 whole entry)
Briefly: Agonist activity at human TAAR1 expressed in recombinant HEK293 cells assessed as cAMP accumulation after 30 mins by luminometer relative to phenethylamine. The assay is classed as functional, cell-based. For orientation: Changes in cAMP serve as a functional read-out for many G protein-coupled receptors.

A further assay deals with HEK293. As to the kind of experiment: Selectivity ratio of EC50 for human adrenergic alpha 2A receptor expressed in CHL cells to EC50 for human TAAR1 expressed in recombinant HEK293 cells. The assay is classed as cell-based.
Assay [3] concerns the target Trace amine-associated receptor 1 (Rattus norvegicus, UniProt Q923Y9). As to the kind of experiment: Agonist activity at rat TAAR1 expressed in recombinant HEK293 cells assessed as cAMP accumulation after 30 mins by luminometer. The class given is functional, cell-based.
In assay [4] the target is Trace amine-associated receptor 1 (Mus musculus, UniProt Q923Y8). Briefly: Agonist activity at mouse TAAR1 expressed in recombinant HEK293 cells assessed as cAMP accumulation after 30 mins by luminometer. The assay is classed as functional, cell-based.

Structures are written as SMILES.

Sequence of Trace amine-associated receptor 1 (Mus musculus, UniProt Q923Y8) (Q923Y8 whole entry): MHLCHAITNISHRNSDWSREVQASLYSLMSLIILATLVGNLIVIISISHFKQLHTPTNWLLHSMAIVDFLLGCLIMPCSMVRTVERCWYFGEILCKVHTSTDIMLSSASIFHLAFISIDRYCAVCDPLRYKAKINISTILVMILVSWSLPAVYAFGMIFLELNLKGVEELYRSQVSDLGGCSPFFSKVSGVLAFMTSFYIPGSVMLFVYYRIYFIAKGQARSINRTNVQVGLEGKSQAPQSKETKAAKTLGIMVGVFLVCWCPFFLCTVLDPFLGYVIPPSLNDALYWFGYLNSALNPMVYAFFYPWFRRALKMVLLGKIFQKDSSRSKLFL
Sequence of Trace amine-associated receptor 1 (Rattus norvegicus, UniProt Q923Y9) (Q923Y9 whole entry): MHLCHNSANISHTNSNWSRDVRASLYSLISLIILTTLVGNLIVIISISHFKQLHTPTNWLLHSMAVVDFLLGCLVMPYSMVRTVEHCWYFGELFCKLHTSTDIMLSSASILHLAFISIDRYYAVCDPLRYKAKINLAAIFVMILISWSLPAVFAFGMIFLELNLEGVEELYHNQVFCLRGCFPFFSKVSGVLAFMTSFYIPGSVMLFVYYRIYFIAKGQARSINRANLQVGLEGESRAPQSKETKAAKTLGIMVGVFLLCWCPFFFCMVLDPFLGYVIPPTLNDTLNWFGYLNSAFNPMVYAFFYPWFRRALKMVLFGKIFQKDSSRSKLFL

As usually defined, the EC50 is the concentration needed to bring the measured effect to its halfway point. The term Emax denotes the greatest response seen or fitted, relative to the assay's reference. As to `CCN(C[C@H]1COC(N)=N1)c1ccccc1`, the EC50 in assay [1] turned out to be 59 nM; in assay [3] it was 14 nM; in assay [4], 3 nM. Moreover, the Emax in assay [2] is 87%. Also, the Ratio EC50 in the assay with HEK293 was found to be 36.
